# Source: patent US4358448A, “N-substituted thiazolyl derivatives of oxy-imino-substituted cephalosporins useful as anti-bacterial agents” (Farmitalia Carlo Erba S.p.A., priority 1979, dated 1982)
# How the values were obtained:
# streptococci = experiment: antibacterial activity against streptococci, relative to reference cephalosporin; assay type: cell-based
# [1] = system: most Gram-negative bacteria; experiment: antibacterial activity against most Gram-negative bacteria, relative to reference cephalosporins; assay type: cell-based
# [2] = system: beta-lactamase producers organisms, such as Klebsiella aerogenes 1082 E, Enterobacter cloacae P 99, Escherichia coli Tem; experiment: antibacterial activity against beta-lactamase producers organisms; assay type: cell-based; conditions: in words
# [3] = system: clinical isolates of indole-positive Proteus; experiment: antibacterial activity against clinical isolates of indole-positive Proteus relative to HR-756; assay type: cell-based; conditions: in words
# [4] = system: Bacteroides fragilis VPI 9032; experiment: antibacterial activity against Bacteroides fragilis relative to Cefotaxime; assay type: cell-based; conditions: in words
# [5] = system: Escherichia coli G, Klebsiella pneumoniae ATCC 10031, Proteus mirabilis ATCC 9921, Escherichia coli Tem., Haemophilus influenzae, Salmonella typhi Watson and …; experiment: in vivo tests in infected mice; conditions: in words
# [6] = approximate acute toxicity in the mouse, single intravenous administration; conditions: in vivo, single intravenous administrations of increasing doses, measured on the seventh day
# Source text: The toxicity of the compounds of the invention is quite negligible and therefore they can be safely used in therapy.
structure (smiles),measurement,setting,value
"CO/N=C(\C(=O)N[C@@H]1C(=O)N2C(C(=O)O)=C(CSc3ccc4nnnn4n3)CS[C@H]12)c1csc(=N)n1O [FCE 20635, 7β-[2-(2-imino-3-hydroxy-4-thiazolinyl)-2-methoxyimino-acetamido]-3-[(tetrazolo[1,5-b]pyridazin-6-yl)-thiomethyl]-3-cephem-4-carboxylic acid (syn-isomer)]",times more active than Cefazolin,streptococci,about 4 times
same,times more active than Cefazolin,[1],about 30 times
same,times more active than Cefuroxime,[1],about 40 times
same,activity against most beta-lactamase producers organisms,[2],high activity
same,activity compared with HR-756,[3],more active than HR-756
same,activity compared with Cefotaxime,[4],at least as active as Cefotaxime
same,activity in vivo tests,[5],high activity
same,LD50 at 168 h,[6],> 2000 mg/kg
